Reference: US20120189673A1, “POLYPEPTIDES AND USES THEREOF” (priority 2009, published 2012)
Where two headings read alike, the source gives them in different places.

Assays:
[1] = system: thrombin induced fibrin network formation in normal human plasma; test: Clotting assay: thrombin clotting time (TCT); assay type: biochemical
Experimental: (§1) Clotting assays. All clotting times were measured using an Amelung coagulometer. Activated partial thromboplastin time (aPTT) was measured by incubating the peptides diluted in sterile water at the indicated concentrations, with 100 μL citrated human plasma for 1 minute followed by the addition of 100 μL aPTT reagent (aPTT Automate, Diagnostica Stago) for 60 seconds at 37° C. Clotting was initiated by the addition of 100 μL of a 25-mM CaCl2 solution. In the prothombrin time assay (PT), clotting was initiated by the addition of 100 μL Thrombomax with calcium (PT reagent; Sigma-Aldrich). For measuring the thrombin clotting time (TCT), clotting was initiated by the addition of 100 μL Accuclot thrombin time reagent (TCT reagent; Sigma-Aldrich).

[2] = Liposome leakage assay (carboxyfluorescein release); settings: for CF release from liposomes: 10 mM Tris-buffer; for share of the maximal CF release: within 5-10 minutes, 1 μM of peptides
Excerpt: Liposome preparation and leakage assay. The liposomes investigated were either zwitterionic (DOPC/cholesterol 60/40 mol/mol or DOPC without cholesterol) or anionic (DOPE/DOPG 75/25 mol/mol). DOPG (1,2-Dioleoyl-sn-Glycero-3-Phosphoglycerol, monosodium salt), DOPC (1,2-dioleoyl-sn-Glycero-3-phosphocholine), and DOPE (1,2-dioleoyl-sn-Glycero-3-phosphoetanolamine) were all from Avanti Polar Lipids (Alabaster, USA) and of >99% purity, while cholesterol (>99% purity), was from Sigma-Aldrich (St. Louis, USA). Due to the long, symmetric and unsaturated acyl chains of these phospholipids, several methodological advantages are reached. In particular, membrane cohesion is good, which facilitates very stable, unilamellar, and largely defect-free liposomes (observed from cryo-TEM) and well defined supported lipid bilayers (observed by ellipsometry and AFM), allowing detailed values on leakage and adsorption density to be obtained. The lipid mixtures were dissolved in chloroform, after which solvent was removed by evaporation under vacuum overnight. Subsequently, 10 mM Tris buffer, pH 7.4, was added together with 0.1 M carboxyfluorescein (CF) (Sigma, St. Louis, USA). After hydration, the lipid mixture was subjected to eight freeze-thaw cycles consisting of freezing in liquid nitrogen and heating to 60° C. Unilamellar liposomes of about Ø140 nm were generated by multiple extrusions through polycarbonate filters (pore size 100 nm) mounted in a LipoFast miniextruder (Avestin, Ottawa, Canada) at 22° C. Untrapped CF was removed by two subsequent gel filtrations (Sephadex G-50, GE Healthcare, Uppsala, Sweden) at 22° C., with Tris buffer as eluent. CF release from the liposomes was determined by monitoring the emitted fluorescence at 520 nm from a liposome dispersion (10 mM lipid in 10 mM Tris, pH 7.4). An absolute leakage scale was obtained by disrupting the liposomes at the end of each experiment through addition of 0.8 mM Triton X-100 (Sigma-Aldrich, St. Louis, USA). A SPEX-fluorolog 1650 0.22-m double spectrometer (SPEX Industries, Edison, USA) was used for the liposome leakage assay in Tris buffer in the absence and presence of liposomes under conditions described above. Measurements were performed in triplicate at 37° C.
Liposome preparation and leakage assay—The liposomes investigated were anionic (DOPE/DOPG 75125 mol/mol). DOPG (1,2-Dioleoyl-sn-Glycero-3-Phosphoglycerol, monosodium salt) and DOPE (1,2-dioleoyl-sn-Glycero-3-phoshoetanolamine) were both from Avanti Polar Lipids (Alabaster, USA) and of >99% purity. […] CF release from the liposomes was determined by monitoring the emitted fluorescence at 520 nm from a liposome dispersion (10 µM lipid in 10 mM Tris, pH 7.4). […]

P. aeruginosa = test: Viable count analysis, P. aeruginosa; assay type: cell-based, Pseudomonas aeruginosa; settings: for killing in human plasma compared with physiological buffer: 20% human citrate plasma
Experimental: Viable count analysis—E. coli strains were grown to mid-logarithmic phase in Todd-Hewitt (TH). P. aeruginosa strains were grown in TH overnight. Bacteria were washed and diluted in 10 mM Tris, pH 7.4 containing 5 mM glucose. 2×10^6 cfu/ml bacteria were incubated in 50 μl, at 37° C. for 2 h with the C-terminal TFPI-derived peptides GGL27, TKR22, or LIK17 at the indicated concentrations. Additional experiments were performed in 10 mM Tris, pH 7.4, containing 0.15 M NaCl, either alone or with 20% normal or heat inactivated citrate-plasma. Serial dilutions of the incubation mixture were plated on TH agar, followed by incubation at 37° C. overnight and cfu determination.

[3] = system: extrinsic pathway of coagulation in normal human plasma; test: Clotting assay: prothrombin time (PT); assay type: biochemical
Experimental: as §1

Row | Sequence | thrombin clotting time (TCT) [1] | CF release from liposomes [2] | share of the maximal CF release [2] | potentiating effect of native plasma compared with heat-inactivated plasma (P. aeruginosa) | killing in human plasma compared with physiological buffer (P. aeruginosa) | prothrombin time (PT) [3] | thrombin clotting time (TCT) ([1]; listed as GGL-27) | prothrombin time (PT) ([3]; listed as GGL-27)
1 | LIKTKRKRKKQRVKIAY [LIK17] | not significantly affected | caused CF release | ~80% | less significant | not enhanced | affected prothrombin time | – | –
2 | GGLIKTKRKRKKQRVKIAYEEIFVKNM [GGL27, C-terminal peptide of TFPI, plasmin-generated] | not significantly affected | caused CF release | ~80% | less significant | not enhanced | affected prothrombin time | impairs coagulation in a dose dependent manner | impairs coagulation in a dose dependent manner
